Laboratory results from US8592611B2, “Trioxane dimer sulfur compounds” (The Johns Hopkins University, priority 2008, dated 2013).

Experiments:
[1] = test system: human HeLa cervical cancer cells; settings: human HeLa cervical cancer cells in vitro; cited from earlier work
[2] = test system: chloroquine-sensitive P. falciparum (NF54); assay: in vitro antimalarial activity, [3H]hypoxanthine incorporation; assay type: cell-based; settings: Plasmodium falciparum
Text: To determine the antimalarial effect of the disclosed trioxane sulfur dimer compounds of Formula I, screening assays may be performed against chloroquine-sensitive P. falciparum (NF54). Using the methods described below, the IC50 values of these compounds may be determined.
Antimalarial activity may be determined by measuring the incorporation of [^3H]hypoxanthine by the methods of DesJardins and Milhous with the following modifications, see Desjardins, R. E.; Canfield, C. J.; Haynes, J. D.; Chulay, J. D., Antimicrob. Agents Chemother., 16:710 (1979); Milhous, W. K.; Weatherly, N. F.; Bowdre, J. H.; Desjardins, R., Antimicrob. Agents Chemother., 27:525 (1985). […]
Stock solutions (approximately 2.5 mg/mL of HPLC-purified or recrystallized test compound) are prepared in dimethyl sulfoxide (DMSO; Sigma-Aldrich #27,043-1). […] Cells may be harvested (Brandel MB-48R) onto GF-C glass filters (Brandel), and the filters washed five times with 3 mL water per sample spot, dried under a heat lamp, and counted (Beckman Model LS-6500) in scintillation cocktail (ICN Cytoscint).
Decays per minute (dpm) values may be downloaded and analyzed (Power Macintosh 7200/90; Microsoft Excel 5.0), to yield the mean and standard deviation at each drug concentration. […]

P388 leukemia = settings: NCI Report on NSC 369397, tested on 25 Oct. 1983; cited from earlier work
[3] = test system: P. vivax and P. falciparum; settings: 2099 cases of malaria (P. vivax and P. falciparum about 3:1), different dosage forms; cited from earlier work

IC50 [2]	SMILES	IC50 [1]	activity against P388 leukemia (P388 leukemia)	clinical outcome [3]
	C[C@@H]1CC[C@H]2[C@@H](C)C(O)O[C@@H]3O[C@]4(C)CC[C@@H]1[C@]32OO4 (stereo partly shown) [dihydroartemisinin]	5000 to 10000 nM		
7.7 nM	C[C@@H]1CC[C@H]2[C@@H](C)C(=O)O[C@@H]3O[C@]4(C)CC[C@@H]1[C@]32OO4 [artemisinin]		inactive	clinical cure of all patients
